Read-outs that look alike come from different tables or passages of the source. Blank lines part the entries; values can stand above or below the compound they belong to. Where a SMILES comes first, the peptide text is derived from it. Bridges are numbered along the chain shown (N, C = ends). Roman numbers before positions name the chains, in order.
Tests used:
[1] = Sterilization tests (heat sterilization of aqueous peptide solutions, analysed by capillary isotachophoresis and HPLC); type: physicochemical; details: heat sterilization (121° C.)
Procedure: Starting from a stock solution of the tripeptide of the invention so obtained (2 mmol/1 in tris-buffer) solutions having pH-values of 5.5, 6.5, 7.5 and 8.5 were prepared by addition of 0.1 N HCL or KOH, respectively. Thereafter 0.1 ml each of these solutions were filled into ampoules purified with chromosulfuric acid, met sealed under vacuum and sterilized over 8, 12, 15 or 30 min, respectively.
Further respective solution of the cystinyl-bis-alanine-tripeptide were prepared and treated analogeously.
The stock solutions as well as the sterilized samples were analysized by means of capillary-isotachophoreses and HPLC. […] Therefore, said tripeptides are not only suitable for oral preparations, but also and in particular for the preparation of parenteral infusion solutions.

Solubility in water = type: physicochemical
[2] = cited from earlier work
[3] = In vivo utilization: single injection via vena cava catheter, plasma peptide/amino acid concentrations by RP-HPLC after DANSYL derivatization; parameters: species or system male Wistar-rats; details: for tripeptide concentration in plasma: 20 μmol/100 g bw
Procedure: For physiological investigation of the in vivo utilization of bis-amino acid cystine-peptides bis-glycyl-L-cystine and bis-L-alanyl-L-cystine were selected as examples and injected into male Wistar-rats in the form of a peptide single injection (50 μmole/100 g bw and 20 μmole/100 g bw respectively, injection volume 0.5-1 ml), by means of a vena cava-catheter within 5 s. The withdrawal of blood (1 ml in herparinized syringes) was 30, 60, 120, 180 and 300 s after application of the peptides. The plasma obtained by centrifugation was subsequently treated with 30% SSA (ratio of sample to SSA 10:1) for precipitation, maintained 1 h at 4° C., and finally centrifuged.
For determination of the bis-glycyl-L-cystine, mono-glycyl-L-cystine, bis-L-alanyl-L-cystine, mono-L-alanyl-L-cystine peptides as well as of the free amino acids glycine, alanine and cystine the precipitated plasma samples were analysed by high pressure liquid chromatography after pre-column derivatization with 5 dimethylaminonaphthaline-1-sulphonylchloride (DANSYL-Cl). The analytical conditions are summarized below:
RP-HPLC after DANSYL-Precolumn Derivatization
Column: Spherisorb ODS 11 3 μm (125×4.6 mm)
(A) 12.5 mM Na-phosphate-buffer of pH 6.6
Detection: fluorescence Em 550/Ex 325

[4] = 30 s after injection, 50 μmole/100 g bw
[5] = first measurement (30 s), 20 μmole/100 g bw

stability upon heat sterilization in aqueous solution [1]: unstable upon heat sterilization | time of heat sterilization after which other derivatives are formed [1]: ≤ 8 min | solubility in water (Solubility in water): well soluble in water
SMILES: C[C@H](NC(=O)[C@@H](N)CSSC[C@H](N)C(=O)N[C@@H](C)C(=O)O)C(=O)O [L-cystinyl-bis-L-alanine] (I: H-Cys-Ala-OH / II: H-Cys-Ala-OH; disulfide I:1-II:1)

SMILES: CC(=O)N[C@@H](CSSC[C@H](NC(C)=O)C(=O)O)C(=O)O [N,N'-bis-acetylcystine, reference compound]
solubility in water (prior art statement) [2]: relatively high solubility in water

tripeptide plasma concentration 5 min after injection relative to the value after 30 s ([3]; 50 μmole/100 g bw single injection, rat plasma): about 10% | tripeptide concentration in plasma ([3]; 30 s after injection): 655 µM | plasma cystine concentration versus starting concentration [3, 4]: 14 fold | plasma glycine concentration versus starting concentration [3, 4]: 12 fold | plasma cystine concentration versus starting value ([3]; 5 min after injection, 50 μmole/100 g bw): about 30 times | plasma cystine concentration versus starting point [3, 5]: 10 fold | plasma glycine concentration versus starting point [3, 5]: 5 fold | half-life ([3]; male, Wistar, rat, plasma, iv, two compartment model, residual method, n=5, 50 μmole/100 g bw, read-out: calculated half-life (converted)): 4 min | clearance from the plasma after single injection ([3]; rat): rapidly cleared from the plasma
SMILES: NCC(=O)N[C@@H](CSSC[C@H](NC(=O)CN)C(=O)O)C(=O)O [(gly-cys)2, N,N'-bis-glycyl-L-cystine] (I: H-Gly-Cys-OH / II: H-Gly-Cys-OH; disulfide I:2-II:2)
solubility in water (prior art statement) [2]: soluble

time after injection within which the tripeptide could be detected in all 6 test animals ([3]; 20 μmole/100 g bw): ≤ 2 min | time of maximum plasma alanine concentration ([3]; 20 μmole/100 g bw): 30 s | time of maximum plasma cystine concentration ([3]; 20 μmole/100 g bw): 60 s | tripeptide concentration in plasma ([3]; 30 s after injection): 280 µM | concentration of intermediate hydrolysis product ala-(cys)2 relative to the tripeptide ([3]; 30 s after injection, 20 μmole/100 g bw): about 5 fold | detection of tripeptide in plasma at the last sampling ([3]; 300 s after injection, 20 μmole/100 g bw): could not be detected | maximum plasma cystine concentration versus starting concentration ([3]; after 60 s, 20 μmole/100 g bw): 23 times | plasma alanine concentration versus starting level ([3]; after 300 s, 20 μmole/100 g bw): 3 times | plasma alanine concentration versus starting level ([3]; at the beginning (30 s), 20 μmole/100 g bw): ~7 times | level at time molar at 0.05 h ([3]; male, Wistar, rat, plasma, iv, 20 umole/100 g bw, heading: tripeptide concentration in plasma, 180 s after injection, detected in one sample only, 20 μmole/100 g bw): ~20 µM | half-life ([3]; male, Wistar, rat, plasma, iv, 20 μmole/100 g bw, concluded from data, not calculable, read-out: plasma half-life): < 2 min | clearance from the plasma after single injection ([3]; rat): rapidly cleared from the plasma | stability upon heat sterilization in aqueous solution [1]: remain stable upon heat sterilization | solubility in water (Solubility in water): well soluble in water
SMILES: C[C@H](N)C(=O)N[C@@H](CSSC[C@H](NC(=O)[C@H](C)N)C(=O)O)C(=O)O [(ala-cys)2, N,N'-bis-L-alanyl-L-cystine] (I: H-Ala-Cys-OH / II: H-Ala-Cys-OH; disulfide I:2-II:2)

Reference: patent US4968696A, “N,N'-bis-L-amino acid-L-cystine-peptide containing amino acid preparations for oral parenteral nutrition” (Pfrimmer + Co. Pharmazeutische Werke Erlangen GmbH + co. KG, priority 1986, dated 1990)
